Experimental data as given in patent publication US9452983B2, “Method for refining quinolinic acid” (CJ CHEILJEDANG CORP., priority 2013, dated 2016).

Experiment: Evaluation of solubility of quinolinic acid with respect to pH
Type: physicochemical
Details: room temperature (about 23° C.), pH controlled using 28%-ammonia water and 98% sulfuric acid, FIG. 1
Description: Evaluation of solubility of Quinolinic Acid with Respect to pH
Solubility of quinolinic acid in water at room temperature (about 23° C.) with respect to pH was evaluated using a pure quinolinic acid reagent (Sigma-Aldrich Prod. No. P63204), wherein the pH was controlled using a 28%-ammonia water and 98% sulfuric acid).

## O=C(O)c1cccnc1C(=O)O [quinolinic acid]
  Solubility of quinolinic acid in water with respect to pH: the lower the pH, the lower the solubility
